Tests used:
Type in all cases: functional
Set-up in all cases: concentration or dose not given beside the values
Plasmodium berghei = experiment: MMV: P. berghei-infected blood was withdrawn from mice by cardiac pucture before being immediately added to ookinete culture medium containing test compounds. 26 hr later, GFP-positive ookinetes were identified and counted by automated microscopy. All compounds were tested in 4 independent experiments and data presented here is the mean.
Plasmodium falciparum [1] = experiment: MMV: P. falciparum NF54 functionally mature Stage V gametocytes were incubated for 24 hr in the presence of the test compounds. Gamete formation was then triggered by addition of 2uM xantheurenic acid and temperature decrease to ~20C. Female gamete formation was recorded 24 hr later by automated microscopy detection of surface labelling of female gametes with a Cy3-conjugated antibody reactive to Pfs25. All compounds were tested in 4 independent experiments and data presented here is the mean.; conditions: NF54, 24 h
Plasmodium falciparum [2] = experiment: MMV: P. falciparum NF54 functionally mature Stage V gametocytes were incubated for 24 hr in the presence of the test compounds. Gamete formation was then triggered by addition of 2uM xantheurenic acid and temperature decrease to ~20C. Male gamete exflagellation was recorded and analysed by automated microscopy after 20 min. All compounds were tested in 4 independent experiments and data presented here is the mean.

Row | Structure (SMILES) | inhibition (Plasmodium berghei) [%] | inhibition (Plasmodium falciparum [1]) [%] | inhibition (Plasmodium falciparum [2]) [%]
1 | COc1ccc(C)c2sc(N(Cc3cccnc3)C(=O)c3ccc(C#N)cc3)nc12 | 2.145 | -37.8 | -18.7
2 | CCOC(=O)C1=C(C)N=c2sc(=Cc3cc(Cl)ccc3O)c(=O)n2C1c1ccc(OC)cc1 (configuration not stated) | 5.932 | -13 | -29.2
3 | CCOc1cc(CNC(C)C(O)c2ccccc2)cc(Cl)c1OCC (configuration not stated) | -7.956 | -44.5 | 11.6
4 | CCCCOC(=O)c1ccc(Nc2cc(C)nc3ccc(OC)cc23)cc1 | -4.495 | -6.56 | -6.31
5 | CCOc1c(Cl)cc(CNCC(O)c2ccccc2)cc1OC (configuration not stated) | -11.86 | -14.1 | -11.9
6 | c1ccc(CNc2nc(Nc3ccccc3)nc3ccccc23)cc1 | -4.491 | -29.2 | -50.6
7 | COc1ccc2nc(C)cc(Nc3cccc(O)c3)c2c1.Cl | -5.92 | -5.48 | -12.1
8 | COc1cccc(C(=O)Nc2ccc(-c3nc4ccccc4[nH]3)cc2)c1 | 18.46 | 1.53 | 24
9 | CCCN(CCC)CCCNC(=O)c1cc2c(-c3ccc(OC)c(OC)c3)nn(C)c2s1 | 5.504 | -7.86 | -20.2
10 | Cc1cc(NC(=O)C2c3ccccc3C(=O)N(CC(C)C)C2c2cccs2)no1 (configuration not stated) | -16.54 | 40.3 | 52.5
11 | CCCCN(CCCC)S(=O)(=O)c1ccc(NC(=O)c2ccco2)cc1 | -10.62 | -25.1 | 30.9
12 | O=C(CCl)NCCOc1ccc(Cl)cc1Cl | -18.34 | -30.6 | 13.7
13 | O=C(Nc1nc(-c2ccccn2)cs1)c1ccccc1Br | 2.456 | -22.2 | -29.6
14 | COc1cc2c3cc1Oc1c(OC)c(OC)cc4c1C(Cc1ccc(O)c(c1)Oc1ccc(cc1)CC3N(C)CC2)N(C)CC4.Cl (configuration not stated) | -16.79 | -37.2 | -64.1
15 | O=C(Nc1cccc(C(F)(F)F)c1)c1cc(Cl)ccc1O | -2.67 | -6.94 | 24.9
16 | CCCCc1c(C)nc2c(OC)cccc2c1O | 20.97 | 0.0743 | 54.7
17 | O=[N+]([O-])c1ccc(C=NNc2nc3ccccc3[nH]2)cc1 | -19.94 | -17 | 18.3
18 | C=CCc1c(C)nc2ccccc2c1O | 19.81 | -51.4 | 52.3
19 | CCOc1ccc(-c2nonc2NC(=O)c2cccc(C)c2)cc1OCC | -6.946 | -7.75 | 52.4
20 | COc1ccc(NC(=O)C2c3ccccc3C(=O)N(CC(C)C)C2c2cccs2)cc1Cl (configuration not stated) | -15.31 | -2.16 | 8.99
21 | O=C(NC1CCN(Cc2ccccc2)CC1)c1cc2nc(-c3ccc(Cl)s3)cc(C(F)(F)F)n2n1 | 28.86 | -40.5 | -4.49
22 | CCOc1ccccc1CNC(=O)C1c2ccccc2C(=O)N(CC(C)C)C1c1cccs1 (configuration not stated) | 3.43 | -3.09 | 15.7

Row | Structure (SMILES) | inhibition (Plasmodium berghei) [%] | inhibition (Plasmodium falciparum [1]) [%] | inhibition (Plasmodium falciparum [2]) [%]
23 | CCN(CC)CCNc1ncnc2c1[nH]c1ccc(Cl)cc12 | -19.34 | -27.6 | -43.5
24 | N=c1n(CCN2CCCCC2)c2ccccc2n1CC(=O)c1ccc(Cl)c(Cl)c1 | -13.93 | -16.3 | -14.4
25 | CCOc1ccc(N2C(N)=NC(N)=NC2(C)C)cc1.Cl | -12.23 | -42 | 66.8
26 | COc1ccc(-c2cc3c(SCC(=O)Nc4cc(C(F)(F)F)ccc4Cl)nccn3n2)cc1 | -25.97 | -16.8 | 23.5
27 | CCOc1ccc2c(c1)CN(Cc1ccc(Cl)cc1)CO2 | 5.14 | -18.1 | 18.9
28 | CC1CC(C)CN(C(=O)c2ccc(Cl)cc2Cl)C1 (configuration not stated) | -6.319 | -18.2 | 30.8
29 | CC(NCc1ccccc1)c1cc(Cl)ccc1O (configuration not stated) | -6.231 | -17.3 | -5.35
30 | Fc1ccc2[nH]c3c(NCCCN4CCOCC4)ncnc3c2c1 | -27.65 | -13.7 | 14.8
31 | COc1cc2cc(C(=O)Nc3ccccc3)c(N)nc2cc1OC | 8.567 | -10 | 22
32 | Cc1ccc(-c2cc3c(SCC(=O)Nc4cc(C(F)(F)F)ccc4Cl)nccn3n2)cc1 | -10.47 | 0.168 | 11.4
33 | COc1ccc(Br)cc1C1Nc2ccc3ccccc3c2C2=C1C(=O)CC(c1ccccc1)C2 (configuration not stated) | -18.54 | -13.2 | 9.97
34 | CN(C)CCNc1cc(-c2ccccc2)nc2ccccc12 | -1.411 | -24.1 | 2.52
35 | c1ccc2cc3c(Nc4ccc(N5CCOCC5)cc4)ccnc3cc2c1 | 12.53 | -0.0777 | 13.2
36 | CC(C)(C)c1ccc(C(=O)Nc2nc3ccccc3s2)cc1 | 18.69 | -4.04 | 26.1
37 | COc1ccc(CNC(=O)c2cc3c(=O)n4ccccc4nc3n(CCc3ccccc3)c2=N)cc1 | -21.18 | 0.565 | -25
38 | Cc1ccc(N2C3c4ccccc4N(S(=O)(=O)c4ccc(C)cc4)C2c2ccccc2N3S(=O)(=O)c2ccc(C)cc2)cc1 | -13.78 | -6.27 | 24.2
39 | CCc1ccc(Nc2cc(C)nc3nc(C)nn23)cc1 | -14.94 | -17.7 | 20.5
40 | CCOC(=O)c1cnc2c(C)cccc2c1Nc1ccc(C(C)=O)cc1 | 1.277 | -9.63 | 13
41 | O=C(NCC(c1ccsc1)N1CCCCCC1)c1ccc(C(F)(F)F)cc1 (configuration not stated) | -31.95 | -37.4 | -14.6
42 | Cc1ccc(Cl)cc1N1CCN(CCCNC(=O)C2CCN(c3nc4ccccc4[nH]3)CC2)CC1 | -9.077 | -57.2 | 5
43 | Cc1cc(N(C)C)nc(Nc2ccc(NC(=O)Nc3ccccc3)cc2)n1 | -9.07 | -35.4 | 33.6
44 | CC(C)(C)c1ccc(C(=O)Nc2c3c(nn2-c2cccc(Cl)c2)CSC3)cc1 | -7.14 | -5.95 | 25.7

Row | Structure (SMILES) | inhibition (Plasmodium berghei) [%] | inhibition (Plasmodium falciparum [1]) [%] | inhibition (Plasmodium falciparum [2]) [%]
45 | CCc1c(C)c(=N)c2ccccc2n1C.I | -36.84 | -14.1 | -21.8
46 | COc1ccc(C(=O)C2CC2c2ccc(Cl)cc2)cc1 (configuration not stated) | -7.167 | -10.6 | 19.4
47 | Cc1ccc(Cn2c(N3CCC(C(=O)NCc4cccs4)CC3)nc3ccccc32)cc1 | 6.449 | -22.4 | 12.1
48 | Cl.c1ccc2c(NCCCCCCNc3c4c(nc5ccccc35)CCCC4)c3c(nc2c1)CCCC3 | -0.2313 | -9.36 | 18.8
49 | COc1ccc(CCn2c(=N)c(C(=O)NCc3cccnc3)cc3c(=O)n4cccc(C)c4nc32)cc1 | 23.24 | -20.7 | -7.17
50 | CCOc1cc2c(cc1OCC)C(c1cc(Cl)ccc1O)NCC2 (configuration not stated) | 9.631 | -14.7 | 4.54
51 | COc1ccc(C2Sc3ccccc3N=C3C2=C(O)c2ccccc23)cc1 (configuration not stated) | 68.07 | 0.279 | 32.2
52 | OC(CNC1CCCCC1)Cn1c2ccccc2c2ccccc21 (configuration not stated) | 28.1 | 4.91 | 12.1
53 | CCCCOc1ccc(C(=O)Nc2cc(C)on2)cc1 | 1.333 | -26.5 | 47.5
54 | CCOc1ccc(CN2CCN(CC(O)COc3ccc(OCC(O)CN4CCN(Cc5ccc(OCC)cc5)CC4)cc3)CC2)cc1 (configuration not stated) | -13.58 | -37.4 | -9.77
55 | CCOc1cc2c(cc1OCC)C(c1cc(C)c(O)c(C)c1)NCC2.Cl (configuration not stated) | -16.67 | 20.2 | -7.71
56 | CC(O)(c1ccc(Cl)cc1)C(CN1CCCCC1)c1ccccc1.Cl (configuration not stated) | -9.711 | -1.41 | -5.37
57 | CCCc1c(C)nc2ccccc2c1O | 34.59 | 1.84 | 66.4
58 | COc1ccc(CNC2CCN(c3ccc(NC(=O)c4cccc(Cl)c4)cc3)CC2)cc1OC | -11.96 | -36.5 | 15
59 | CCCCCCC(O)(c1ccc(F)cc1)C(CN1CCOCC1)c1ccccc1.Cl (configuration not stated) | -9.863 | 17.7 | -64
60 | COc1cc(OC)cc(N2C(=O)N(Cc3ccc(C(C)(C)C)cc3)c3ccccc3S2(=O)=O)c1 | -1.934 | -7.89 | 8.32
61 | CC(C)(C)C(=O)Nc1ccc(C(=O)Nc2cccc(-c3nc4ccccc4[nH]3)c2)cc1 | 14.15 | -2.43 | 11
62 | COc1cccc(C(=O)NC(c2ccc(C)cc2)c2cc(Cl)c3cccnc3c2O)c1 (configuration not stated) | -20.64 | 0.843 | 19.5
63 | Cc1ccc(C(=O)c2oc3ccc4c(C)cc(=O)oc4c3c2C)cc1 | -19.35 | -29.5 | -7.03
64 | Cc1cc(C=C2SC(=Nc3ccccc3)N(C3CCCC3)C2=O)c(C)n1-c1ccc(Cl)cc1 | -28.39 | -30.5 | 31.4

— ChEMBL document CHEMBL3301451, “MMV Malaria Box gametocyte functional viability assay screening”
